Tests used:
Assay in all cases: relative viability (nuclei count vs DMSO), 5 days (fraction); higher = more cells survive
Ruxolitinib + Lapatinib = compound: N#CC[C@H](C1CCCC1)n1cc(-c2ncnc3[nH]ccc23)cn1 [Ruxolitinib] + CS(=O)(=O)CCNCc1ccc(-c2ccc3ncnc(Nc4ccc(OCc5cccc(F)c5)c(Cl)c4)c3c2)o1 [Lapatinib] (partner 2 µM)
Method in brief: (§1)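 Relative viability is defined as nuclei in treated wells over nuclei in vehicle wells. Duplicate plates were run and medians reported. Lung cancer cell lines in 1536-well plates were dosed by pin tool one day after seeding, with one drug or with a fixed anchor-drug dose plus five library-drug doses (not always all listed) in √10 steps, and nuclei were counted after 5 days.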

Vismodegib + Pemetrexed = compound: CS(=O)(=O)c1ccc(C(=O)Nc2ccc(Cl)c(-c3ccccn3)c2)c(Cl)c1 [Vismodegib] + Nc1nc2[nH]cc(CCc3ccc(C(=O)N[C@@H](CCC(=O)O)C(=O)O)cc3)c2c(=O)[nH]1 [Pemetrexed] (partner 0.2 µM)
Method in brief: as §1

Ruxolitinib + Bortezomib = compound: N#CC[C@H](C1CCCC1)n1cc(-c2ncnc3[nH]ccc23)cn1 [Ruxolitinib] + CC(C)C[C@H](NC(=O)[C@H](Cc1ccccc1)NC(=O)c1cnccn1)B(O)O [Bortezomib] (partner 0.002 µM)
Method in brief: as §1

Ruxolitinib + Tozasertib = compound: N#CC[C@H](C1CCCC1)n1cc(-c2ncnc3[nH]ccc23)cn1 [Ruxolitinib] + Cc1cc(Nc2cc(N3CCN(C)CC3)nc(Sc3ccc(NC(=O)C4CC4)cc3)n2)n[nH]1 [Tozasertib] (partner 0.1 µM)
Method in brief: as §1

Row | Cell Line | relative viability (Ruxolitinib + Lapatinib; first compound 0.253 µM) | relative viability (Ruxolitinib + Lapatinib; first compound 0.8 µM) | relative viability (Ruxolitinib + Lapatinib; first compound 2.53 µM) | relative viability (Ruxolitinib + Lapatinib; first compound 8 µM) | relative viability (Vismodegib + Pemetrexed; first compound 0.08 µM) | relative viability (Vismodegib + Pemetrexed; first compound 0.253 µM) | relative viability (Vismodegib + Pemetrexed; first compound 0.8 µM) | relative viability (Vismodegib + Pemetrexed; first compound 2.53 µM) | relative viability (Vismodegib + Pemetrexed; first compound 8 µM) | relative viability (Ruxolitinib + Bortezomib; first compound 0.08 µM) | relative viability (Ruxolitinib + Bortezomib; first compound 0.253 µM) | relative viability (Ruxolitinib + Bortezomib; first compound 0.8 µM) | relative viability (Ruxolitinib + Bortezomib; first compound 2.53 µM) | relative viability (Ruxolitinib + Bortezomib; first compound 8 µM) | relative viability (Ruxolitinib + Tozasertib; first compound 0.253 µM) | relative viability (Ruxolitinib + Tozasertib; first compound 0.8 µM) | relative viability (Ruxolitinib + Tozasertib; first compound 2.53 µM) | relative viability (Ruxolitinib + Tozasertib; first compound 8 µM) | relative viability (Ruxolitinib + Lapatinib; first compound 0.08 µM) | relative viability (Ruxolitinib + Tozasertib; first compound 0.08 µM)
1 | HCC-827 | 0.196 | 0.172 | 0.212 | 0.225 | 0.246 | 0.283 | 0.563 | 0.284 | 0.267 | 1.05 | 0.993 | 1.01 | 0.881 | 0.798 | 0.342 | 0.35 | 0.397 | 0.386 |  | 
2 | NCI-H596 | 1.07 | 1.22 | 1.03 | 1.07 | 0.475 | 0.489 | 0.394 | 0.525 | 0.502 | 0.964 | 1.17 | 1.21 |  | 0.994 | 0.897 | 0.962 | 0.955 | 0.799 | 1.18 | 0.827
3 | COR-L23 | 0.9 | 1.16 | 0.744 | 0.823 | 0.195 | 0.19 | 0.184 | 0.195 | 0.207 | 1.16 | 1.03 | 1.06 | 0.9 | 0.758 | 0.217 | 0.204 | 0.192 | 0.146 | 1 | 0.204
4 | 201T | 1.14 | 1.11 | 1.28 | 1.26 | 0.323 | 0.354 | 0.336 | 0.335 | 0.297 | 1.14 | 1.26 | 1.21 | 1.34 | 1.3 | 1.19 | 1.17 | 1.21 | 1.11 | 1.1 | 1.11
5 | NCI-H322M | 0.68 | 0.67 | 0.687 | 0.873 | 0.607 | 0.618 | 0.548 | 0.609 | 0.646 | 1.18 | 1.31 | 1.26 | 1.52 | 1.64 | 0.503 | 0.457 | 0.458 | 0.482 | 0.638 | 0.451
6 | LU99A | 0.954 | 1.13 | 0.754 | 0.675 | 0.187 | 0.164 | 0.246 | 0.163 | 0.176 | 1.27 | 1.05 | 1.21 | 1.15 | 0.842 | 0.26 | 0.298 | 0.303 | 0.316 | 1.11 | 0.296
7 | NCI-H2405 | 1 | 1.23 | 0.879 | 0.643 | 1.13 | 1.03 | 1.03 | 1.01 | 1.01 | 1.02 | 0.968 | 0.923 | 0.99 | 0.23 | 0.787 | 0.833 | 0.758 | 0.604 |  | 
8 | HCC-366 | 0.982 | 1.1 | 0.937 | 0.747 | 0.164 | 0.17 | 0.186 | 0.166 | 0.158 | 1.03 | 0.987 | 1.16 | 1.01 | 0.845 | 0.113 | 0.192 | 0.0897 | 0.101 | 1.11 | 0.117
9 | COR-L 105 | 0.341 | 0.454 | 0.461 | 0.333 | 1.03 | 1.16 | 1.08 | 1.03 | 1.16 | 0.925 | 0.949 | 0.826 | 0.536 | 0.647 | 0.314 | 0.423 | 0.475 | 0.35 | 0.394 | 0.383
10 | A-427 | 1.14 | 1.09 | 1.11 | 0.967 | 1.08 | 0.939 | 0.912 | 1.01 | 0.902 | 0.983 | 0.955 | 0.985 | 1.06 | 0.782 | 0.201 | 0.237 | 0.184 | 0.179 | 0.875 | 0.232
11 | HCC-44 | 1.07 | 1.04 | 1.01 | 0.783 | 0.663 | 0.629 | 0.616 | 0.638 | 0.677 | 0.888 | 0.944 | 0.914 | 0.933 | 0.689 | 1.11 | 1.15 | 0.804 | 0.761 | 1.06 | 0.953
12 | NCI-H2228 | 1.17 | 1.22 | 0.82 | 0.664 | 0.342 | 0.401 | 0.291 | 0.316 | 0.333 | 1.27 | 1.11 | 1.14 | 0.957 | 1.09 | 0.33 | 0.257 | 0.314 | 0.208 | 0.972 | 0.32
13 | LOU-NH91 | 0.666 | 0.844 | 0.764 | 0.865 | 0.349 | 0.385 | 0.42 | 0.416 | 0.414 | 0.52 | 0.463 | 0.492 | 0.47 | 0.534 | 0.627 | 0.744 | 0.65 | 0.632 | 0.786 | 
14 | NCI-H2023 | 0.693 | 1.75 | 0.807 | 0.728 | 0.256 | 0.216 | 0.219 | 0.235 | 0.248 | 1.13 | 0.928 | 1.43 | 0.844 | 1.01 | 0.352 | 0.506 | 0.356 | 0.302 | 0.921 | 0.305
15 | HARA | 0.631 | 0.76 | 0.7 | 0.675 | 0.243 |  | 0.303 | 0.263 | 0.242 | 1.29 | 1.06 | 1.11 | 0.534 | 1.09 | 0.111 | 0.112 | 0.107 | 0.119 | 0.766 | 0.113
16 | RERF-LC-KJ | 0.859 | 0.898 | 0.909 | 0.855 | 0.491 | 0.454 | 0.468 | 0.508 | 0.479 | 1.09 | 1.11 | 1.2 | 1 | 0.986 | 0.492 | 0.555 | 0.495 | 0.384 | 0.926 | 0.401

— the supplement of paper PMC10307832
